Measurements from the supplement of paper PMC10307832.

Assays:
Test in all cases: relative viability (nuclei count vs DMSO), 5 days (fraction); higher = more cells survive
IMD-0354 + Linsitinib = compound: O=C(Nc1cc(C(F)(F)F)cc(C(F)(F)F)c1)c1cc(Cl)ccc1O [IMD-0354] + C[C@]1(O)C[C@@H](c2nc(-c3ccc4ccc(-c5ccccc5)nc4c3)c3c(N)nccn32)C1 [Linsitinib] (partner 1 µM)
In short: (§1)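 Medians of duplicate plates are given as relative viability. That measure is the nuclei count in treated wells divided by the count in vehicle wells. Counts were taken on 4× images of lung cancer cell lines in 1536-well plates, 5 days after pin-tool dosing the day after seeding with one drug alone or a fixed anchor-drug dose plus five library-drug doses (not always all listed) in √10 steps.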

CX-5461 + Alpelisib = compound: Cc1cnc(CNC(=O)c2c(=O)c3ccc(N4CCCN(C)CC4)nc3n3c2sc2ccccc23)cn1 [CX-5461] + Cc1nc(NC(=O)N2CCC[C@H]2C(N)=O)sc1-c1ccnc(C(C)(C)C(F)(F)F)c1 [Alpelisib] (partner 2 µM)
In short: as §1

CX-5461 + Vorinostat = compound: Cc1cnc(CNC(=O)c2c(=O)c3ccc(N4CCCN(C)CC4)nc3n3c2sc2ccccc23)cn1 [CX-5461] + O=C(CCCCCCC(=O)Nc1ccccc1)NO [Vorinostat] (partner 1 µM)
In short: as §1

IMD-0354 + Dasatinib = compound: O=C(Nc1cc(C(F)(F)F)cc(C(F)(F)F)c1)c1cc(Cl)ccc1O [IMD-0354] + Cc1nc(Nc2ncc(C(=O)Nc3c(C)cccc3Cl)s2)cc(N2CCN(CCO)CC2)n1 [Dasatinib] (partner 0.075 µM)
In short: as §1

**Q.** For UMC-11, which relative viability (IMD-0354 + Linsitinib; first compound 0.04 µM) is on record?
**A.** 1.04

**Q.** What about the relative viability (IMD-0354 + Linsitinib; first compound 0.1265 µM) of the same cell line?
**A.** 1.04

**Q.** And the relative viability (IMD-0354 + Linsitinib; first compound 0.4 µM)?
**A.** 0.559

**Q.** And the relative viability (IMD-0354 + Linsitinib; first compound 1.265 µM)?
**A.** 0.254

**Q.** What about the relative viability (IMD-0354 + Linsitinib; first compound 4 µM) of the same cell line?
**A.** 0.285

**Q.** And the relative viability (CX-5461 + Alpelisib; first compound 0.01 µM)?
**A.** 0.932

**Q.** What about the relative viability (CX-5461 + Alpelisib; first compound 0.03162 µM) of the same cell line?
**A.** 1.21

**Q.** What about the relative viability (CX-5461 + Alpelisib; first compound 0.1 µM) of the same cell line?
**A.** 1.07

**Q.** And the relative viability (CX-5461 + Alpelisib; first compound 0.3162 µM)?
**A.** 0.956

**Q.** And the relative viability (CX-5461 + Alpelisib; first compound 1 µM)?
**A.** 0.391

**Q.** What about the relative viability (CX-5461 + Vorinostat; first compound 0.01 µM) of the same cell line?
**A.** 0.338

**Q.** What about the relative viability (CX-5461 + Vorinostat; first compound 0.03162 µM) of the same cell line?
**A.** 0.35

**Q.** And the relative viability (CX-5461 + Vorinostat; first compound 0.1 µM)?
**A.** 0.384

**Q.** What about the relative viability (CX-5461 + Vorinostat; first compound 0.3162 µM) of the same cell line?
**A.** 0.398

**Q.** What about the relative viability (CX-5461 + Vorinostat; first compound 1 µM) of the same cell line?
**A.** 0.202

**Q.** And the relative viability (IMD-0354 + Dasatinib; first compound 0.04 µM)?
**A.** 0.541

**Q.** What about the relative viability (IMD-0354 + Dasatinib; first compound 0.1265 µM) of the same cell line?
**A.** 0.416

**Q.** And the relative viability (IMD-0354 + Dasatinib; first compound 0.4 µM)?
**A.** 0.246

**Q.** And the relative viability (IMD-0354 + Dasatinib; first compound 1.265 µM)?
**A.** 0.171

**Q.** What about the relative viability (IMD-0354 + Dasatinib; first compound 4 µM) of the same cell line?
**A.** 0.206
